Where “and” joins values, the source holds several entries; their conditions need not be identical. Identical values can stand only once.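 Cells were grown in 96-well plates and exposed to each compound for 48 hours at five concentrations; endpoints were interpolated linearly between bracketing concentrations, or set to the highest concentration if not reached. GI50 marks 50% less growth. At the TGI there is no net growth.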
What was measured:
Assay in all cases: growth of human tumour cells (NCI), 48 h
OVCAR-3 ovarian = tested on: OVCAR-3 ovarian
NCI-H226 lung = tested on: NCI-H226 lung
K-562 leukemia = tested on: K-562 leukemia
BT-549 breast = tested on: BT-549 breast
HCC-2998 colon = tested on: HCC-2998 colon
786-0 renal = tested on: 786-0 renal
MCF7 breast = tested on: MCF7 breast
HOP-92 NSCLC = tested on: HOP-92 NSCLC
CCRF-CEM leukemia = tested on: CCRF-CEM leukemia
MDA-MB-231 breast = tested on: MDA-MB-231 breast

Row | SMILES | GI50 (OVCAR-3 ovarian) [µM] | TGI (OVCAR-3 ovarian) | GI50 (NCI-H226 lung) [µM] | TGI (NCI-H226 lung) [µM] | GI50 (K-562 leukemia) [µM] | TGI (K-562 leukemia) | GI50 (BT-549 breast) [µM] | TGI (BT-549 breast) | GI50 (HCC-2998 colon) [µM] | TGI (HCC-2998 colon) | GI50 (786-0 renal) [µM] | TGI (786-0 renal) | GI50 (MCF7 breast) [µM] | TGI (MCF7 breast) | GI50 (HOP-92 NSCLC) [µM] | TGI (HOP-92 NSCLC) [µM] | GI50 (CCRF-CEM leukemia) [µM] | TGI (CCRF-CEM leukemia) | GI50 (MDA-MB-231 breast) [µM] | TGI (MDA-MB-231 breast)
1 | CC(C)(C)c1cc(/C=N/NC(=O)c2ccccc2NC(=O)c2cccs2)c(O)c(C(C)(C)C)c1 | 1.06 | 10.5 µM | 3 | > 100 | 1.1 | 51.6 µM | 4.65 | > 100 µM | 0.88 | 30.1 µM | 0.588 | 15.7 µM | 0.485 | > 100 µM | 4.44 | 80.5 | 0.336 | 11.7 µM | 1.11 | 19.1 µM
2 | COC(=O)c1ccc(/C=C(\c2ccc([N+](=O)[O-])o2)S(=O)(=O)c2ccc(NC(C)=O)cc2)o1 | – | 19.7 µM | – | 7.98 | – | 18.1 µM | – | 5.43 µM | – | – | – | 14.9 µM | – | 29.3 µM | – | 24 | – | – | – | 5.77 µM
3 | COc1c(/C=C/C=O)cc2c(c1OC)OCO2 | – | > 100 µM | – | 70 | – | – | – | > 100 µM | – | 78.5 µM | – | > 100 µM | – | > 100 µM | – | > 100 | – | > 100 µM | – | 80 µM
4 | O=C(O)c1ccc(C(O)(c2ccccc2)c2ccccc2)cc1 | – | > 100 µM | – | – | – | > 100 µM | – | > 100 µM | – | – | – | > 100 µM | – | > 100 µM | – | – | – | > 100 µM | – | > 100 µM
5 | COc1cc(N2C(=O)[C@H](c3ccccc3)C2c2ccc(SC)cc2)cc(OC)c1OC (some centres not stated) | 0.0265 | 0.0667 µM | 0.0301 | > 100 | 0.037 | > 100 µM | 0.0299 | 0.0937 µM | 0.0438 | > 100 µM | 0.0349 | 22.9 µM | 0.0352 | > 100 µM | 0.031 | 16.5 | 0.0377 | > 100 µM | 0.0321 | 15.2 µM
6 | CC(C)(C)CC(C)(C)c1ccc(O)c(Cc2ccc(Cl)cc2Cl)c1 | 1.74 | 3.11 µM | 1.53 | 2.87 | 2.09 | 3.83 µM | 2.03 | 3.52 µM | 1.79 | 3.25 µM | 1.65 | 3.1 µM | 1.52 | 2.85 µM | 1.39 | 2.76 | 1.53 | 3.19 µM | 1.56 | 2.92 µM
7 | O=Nc1c(-c2c(O)[nH]c3cc(Br)ccc23)[nH]c2ccccc12 | 0.648 | 2.24 µM | 0.932 | 3.49 | 1.19 | > 100 µM | 0.716 | 2.79 µM | 1.6 | 3.08 µM | 1.22 | 4.4 µM | 1.83 | 7.79 µM | 1.97 | 7.29 | 2.53 | > 100 µM | 1.82 | 5.31 µM
8 | COc1cc(/C=C2\CCC/C(=C\c3ccc(O)c(OC)c3)C2=O)ccc1O | 1.56 | 10.8 µM and 3.39 µM | – | 16.8 | 2.71 | > 61 µM and 25.7 µM | 1.76 | 14.2 µM and 3.28 µM | 1.67 | 8.09 µM and 3.04 µM | 1.67 | 4.42 µM and 3.07 µM | 2.1 | 40.5 µM and 9.81 µM | – | 30.7 | 0.366 | 12.2 µM and > 100 µM | 2.85 | 25.7 µM and 11.1 µM

Reference: PubChem BioAssay (NCI)
